Results as given in ChEMBL document CHEMBL1156431, “15-deoxyspergualin primarily targets the trafficking of apicoplast proteins in Plasmodium falciparum” (J Biol Chem, 2007).
Activity calls are given as the source filed them. The rule behind the calls is not given here.

Key:
Plasmodium falciparum [1] = assay: Inhibition of fatty acid synthesis in Plasmodium falciparum FCK2 trophozoites at 10 uM; format: functional, organism-based
Plasmodium falciparum [2] = assay: Growth inhibition as apicoplast copy number of Plasmodium falciparum FCK2 at 100 nM by [3H]hypoxanthine uptake; format: functional
Plasmodium falciparum [3] = assay: TufA expression level in Plasmodium falciparum FCK2 first asexual cycle; format: functional, organism-based
Plasmodium falciparum [4] = assay: Antimalarial activity against Plasmodium falciparum FCK2 by [3H]hypoxanthine uptake; format: functional, organism-based
Plasmodium falciparum [5] = assay: Inhibition of protein synthesis in Plasmodium falciparum FCK2 by [35S]methionine uptake; format: functional, organism-based
[6] = Inhibition of spermidine transporter-mediated [3H]spermidine transport in human red blood cells; format: cell-based
Plasmodium falciparum [7] = assay: Inhibition of spermidine transporter-mediated [3H]spermidine transport in Plasmodium falciparum FCK2 infected human red blood cells at 1 mM
Plasmodium falciparum [8] = assay: Growth inhibition of Plasmodium falciparum FCK2 as apicoplast copy numbers at 1 uM in [3H]hypoxanthine uptake; format: functional
Plasmodium falciparum [9] = assay: Decreased processed NEAT protein FabG level in Plasmodium falciparum FCK2 first asexual cycle; format: functional, organism-based
Plasmodium falciparum [10] = assay: Actin expression level in Plasmodium falciparum FCK2; format: functional, organism-based
Plasmodium falciparum [11] = assay: Inhibition of fatty acid synthesis in Plasmodium falciparum FCK2 ring stage at 1 uM; format: functional, organism-based
Plasmodium falciparum [12] = assay: Inhibition of fatty acid synthesis in Plasmodium falciparum FCK2 trophozoites at 1 uM; format: functional, organism-based
Plasmodium falciparum [13] = assay: Inhibition of fatty acid synthesis in late trophozoite Plasmodium falciparum FCK2 at 1 uM; format: functional, organism-based
Plasmodium falciparum [14] = assay: Inhibition of fatty acid synthesis in Plasmodium falciparum FCK2 shizonts at 1 uM; format: functional, organism-based
Plasmodium falciparum [15] = assay: Antimalarial activity as reduced parasitaemia after 12 hrs against Plasmodium falciparum FCK2 second asexual cycle at 1 uM by [3H]hypoxanthine uptake; format: functional, organism-based
[16] = Inhibition of putrescine transporter-mediated [3H]putrescine transport in Plasmodium falciparum FCK2 infected human red blood cells
[17] = Inhibition of putrescine transporter-mediated [3H]putrescine transport in human red blood cells; format: cell-based
Plasmodium falciparum [18] = assay: Antimalarial activity against Plasmodium falciparum FCK2 infected human erythrocytes with exogenous spermidine; format: functional, organism-based

Compound	Activity (Plasmodium falciparum [1])	Activity (Plasmodium falciparum [2])	Activity (Plasmodium falciparum [3])	IC50 (Plasmodium falciparum [4]) [µM]	IC50 (Plasmodium falciparum [5]) [µM]	IC50 [6] [µM]	Activity (Plasmodium falciparum [7])	Activity (Plasmodium falciparum [8])	Activity (Plasmodium falciparum [9])	Activity (Plasmodium falciparum [10])	Activity (Plasmodium falciparum [11])	Activity (Plasmodium falciparum [12])	Activity (Plasmodium falciparum [13])	Activity (Plasmodium falciparum [14])	Activity (Plasmodium falciparum [15])	IC50 [16] [µM]	IC50 [17] [µM]	Activity (Plasmodium falciparum [18])
Oc1cc(Cl)ccc1Oc1ccc(Cl)cc1Cl	Active	–	–	–	–	–	–	–	–	–	–	–	–	–	–	–	–	–
CCC[C@@H]1C[C@@H](C(=O)N[C@@H]([C@H]2O[C@H](SC)[C@H](O)[C@@H](O)[C@H]2O)[C@H](C)Cl)N(C)C1 [CLINDAMYCIN]	–	0.4	Active	–	–	–	–	–	–	–	–	–	–	–	–	–	–	–
N=C(N)NCCCCCCC(=O)NC(O)C(=O)NCCCCNCCCN (centres undefined) [GUSPERIMUS]	–	–	inactive	0.148	443	372	inactive	0.13	Active	inactive	inactive	inactive	inactive	Active	inactive	1120	924	Active
